Here are results for 19 compounds from US12581252B2, “Substituted pyrrolo[3,4-b]pyridines as PI3K-α inhibitors” (Relay Therapeutics, Inc., priority 2020, dated 2026).

A word on the IC50: it is the concentration that gives 50% inhibition.

Molecules are shown by their SMILES.

Sequence of H1047R PIK3CA enzyme (P42336 whole entry H1047R): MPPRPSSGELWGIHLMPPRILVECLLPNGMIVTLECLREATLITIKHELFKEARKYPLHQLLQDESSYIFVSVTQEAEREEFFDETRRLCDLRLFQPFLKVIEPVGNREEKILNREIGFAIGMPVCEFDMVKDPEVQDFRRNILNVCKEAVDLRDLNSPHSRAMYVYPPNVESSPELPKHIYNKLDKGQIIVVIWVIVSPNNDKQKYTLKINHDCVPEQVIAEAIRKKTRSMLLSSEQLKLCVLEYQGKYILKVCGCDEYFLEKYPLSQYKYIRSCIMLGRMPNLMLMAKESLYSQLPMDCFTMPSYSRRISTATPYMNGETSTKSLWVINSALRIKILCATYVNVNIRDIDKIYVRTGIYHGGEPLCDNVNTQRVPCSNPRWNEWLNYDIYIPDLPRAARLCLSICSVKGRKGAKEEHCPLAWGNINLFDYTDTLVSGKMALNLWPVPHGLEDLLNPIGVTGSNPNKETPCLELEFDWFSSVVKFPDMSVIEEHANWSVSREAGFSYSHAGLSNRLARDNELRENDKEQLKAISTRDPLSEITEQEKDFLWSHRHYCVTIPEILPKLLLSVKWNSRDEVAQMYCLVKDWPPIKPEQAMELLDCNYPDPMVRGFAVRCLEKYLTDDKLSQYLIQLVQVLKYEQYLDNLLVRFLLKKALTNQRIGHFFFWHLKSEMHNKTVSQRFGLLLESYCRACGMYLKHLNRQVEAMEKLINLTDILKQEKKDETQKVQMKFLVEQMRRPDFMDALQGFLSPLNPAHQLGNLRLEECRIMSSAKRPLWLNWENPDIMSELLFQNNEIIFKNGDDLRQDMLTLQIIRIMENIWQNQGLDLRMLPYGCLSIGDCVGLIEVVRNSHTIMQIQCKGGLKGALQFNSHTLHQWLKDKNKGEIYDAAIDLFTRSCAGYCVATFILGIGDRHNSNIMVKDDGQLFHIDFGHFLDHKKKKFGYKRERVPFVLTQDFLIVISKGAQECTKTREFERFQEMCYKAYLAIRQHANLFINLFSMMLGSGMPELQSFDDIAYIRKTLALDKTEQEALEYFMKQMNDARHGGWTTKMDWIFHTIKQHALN
Sequence of H1047R PIK3CA enzyme (P27986 whole entry partner): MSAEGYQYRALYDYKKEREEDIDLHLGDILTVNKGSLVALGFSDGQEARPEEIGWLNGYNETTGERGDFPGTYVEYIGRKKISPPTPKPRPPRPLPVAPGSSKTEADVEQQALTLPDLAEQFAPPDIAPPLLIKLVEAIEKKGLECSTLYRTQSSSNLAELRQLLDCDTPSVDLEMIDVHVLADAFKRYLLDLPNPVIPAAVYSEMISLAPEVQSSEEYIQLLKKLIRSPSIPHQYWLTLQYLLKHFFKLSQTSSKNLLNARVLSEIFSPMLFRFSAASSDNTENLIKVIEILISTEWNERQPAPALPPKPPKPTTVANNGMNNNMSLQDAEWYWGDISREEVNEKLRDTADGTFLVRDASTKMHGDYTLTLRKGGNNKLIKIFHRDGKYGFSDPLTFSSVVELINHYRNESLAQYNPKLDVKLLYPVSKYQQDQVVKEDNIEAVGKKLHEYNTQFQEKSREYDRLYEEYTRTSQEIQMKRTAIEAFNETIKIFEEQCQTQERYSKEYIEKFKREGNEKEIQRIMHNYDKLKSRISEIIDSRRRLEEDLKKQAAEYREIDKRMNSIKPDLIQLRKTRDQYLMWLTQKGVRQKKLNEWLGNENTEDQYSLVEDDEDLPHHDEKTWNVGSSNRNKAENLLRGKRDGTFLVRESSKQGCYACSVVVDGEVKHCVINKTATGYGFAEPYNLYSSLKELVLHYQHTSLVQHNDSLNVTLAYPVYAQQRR

The first experiment has as its target H1047R PIK3CA enzyme (Homo sapiens, UniProt P42336, H1047R). The experiment in a line: ADP-Glo Biochemical PIK3CA Kinase Assay.
Conditions: not given
(In general: ADP-Glo first removes unused ATP, then detects ADP through luciferase.)
Turning to `O=C1N[C@H](c2cc(F)ccc2Cl)c2c(NC(=O)N3C[C@H](O)c4c3ccc(F)c4F)cccc21` (single isomer, unassigned) [Compound I-2310], the IC50 was at most 100 nM.
As for `O=C(Nc1cc(NC2=NC[C@@H](C(F)(F)F)O2)cc2c1[C@H](c1cc(F)ccc1Cl)NC2=O)c1cc(F)cc(C(F)(F)F)c1` (single isomer, unassigned) [Compound I-2324], the concentration for half-maximal inhibition (IC50) was at most 100 nM.
On the same count and under the same terms, as for `O=C1N[C@H](c2cc(F)ccc2Cl)c2c(NC(=O)N3C[C@H](C(F)F)c4ccccc43)cccc21` (single isomer, unassigned) [Compound I-2333], the figure is at most 100 nM; as for `O=C1N[C@@H](c2cc(F)ccc2Cl)c2c(NC(=O)N3C[C@@H](C(F)F)c4ccccc43)cccc21` (single isomer, unassigned) [Compound I-2334], at most 100 nM.
Same read-out and setting: as for `N#CCCc1cc(NC(=O)N2C[C@H](O)c3cc(F)ccc32)c2c(c1)C(=O)N[C@H]2c1cc(F)ccc1Cl` (single isomer, unassigned) [Compound I-2346], the figure is at most 100 nM; as for `O=C1N[C@@H](c2cc(F)ccc2Cl)c2c(NC(=O)N3C[C@H](O)c4cc(F)ccc43)cc(-n3ccccc3=O)cc21` (single isomer, unassigned) [Compound I-2350], at most 100 nM; as for `O=C1N[C@@H](c2cc(F)ccc2Cl)c2c(NC(=O)N3CCc4cc(F)ccc43)cc(-c3cnn(C(F)F)c3)cc21` (single isomer, unassigned) [Compound I-2357], at most 100 nM.
Same read-out and setting: as for `O=C1N[C@@H](c2cc(F)ccc2Cl)c2c(NC(=O)N3C[C@H](O)c4cc(F)ccc43)cc(-n3cccn3)cc21` (single isomer, unassigned) [Compound I-2364], the figure is at most 100 nM; as for `O=C1N[C@H](c2cc(F)ccc2Cl)c2c(NC(=O)N3C[C@H](O)c4cc(F)ccc43)cc(-n3ccnn3)cc21` (single isomer, unassigned) [Compound I-2369], at most 100 nM; as for `O=C1N[C@@H](c2cc(F)ccc2Cl)c2c(NC(=O)N3C[C@@](O)(C(F)(F)F)c4ccccc43)cccc21` (single isomer, unassigned) [Compound I-2386], at most 100 nM.
As to `O=C(Nc1cc(NC2=N[C@H](C(F)(F)F)CO2)cc2c1[C@H](c1cc(F)ccc1Cl)NC2=O)c1cc(F)cc(C(F)(F)F)c1` (single isomer, unassigned) [Compound I-2387], the IC50 was at most 100 nM.
Same read-out and setting: as for `O=C(Nc1cc(NC2=N[C@@H](C(F)(F)F)CO2)cc2c1[C@H](c1cc(F)ccc1Cl)NC2=O)c1cc(F)cc(C(F)(F)F)c1` (single isomer, unassigned) [Compound I-2388], the figure is at most 100 nM; as for `O=C1N[C@H](c2cc(F)ccc2Cl)c2c(NC(=O)N3C[C@@H](O)c4cc(F)ccc43)cc(Cl)cc21` (single isomer, unassigned) [Compound I-2402], at most 100 nM.
The same measure, in the same setting: the value for `Nc1cc(NC(=O)N2C[C@@H](O)c3cc(F)ccc32)c2c(c1)C(=O)N[C@@H]2c1cc(F)ccc1Cl` (single isomer, unassigned) [Compound I-2410] was at most 100 nM; that for `Nc1cc(NC(=O)N2C[C@@H](O)c3cc(F)ccc32)c2c(c1)C(=O)N[C@H]2c1cc(F)ccc1Cl` (single isomer, unassigned) [Compound I-2411] was at most 100 nM; that for `NCCc1cc(NC(=O)N2C[C@H](O)c3cc(F)ccc32)c2c(c1)C(=O)N[C@@H]2c1cc(F)ccc1Cl` (single isomer, unassigned) [Compound I-2443] was at most 100 nM.
In turn, `O=C1N[C@H](c2cc(F)ccc2Cl)c2c(NC(=O)N3C[C@H](O)c4cc(F)ccc43)cc(-c3ccc(=O)n(C(F)F)c3)cc21` (single isomer, unassigned) [Compound I-2448] came in with an IC50 of at most 100 nM.
Take `CC[C@@]1(O)CN(C(=O)Nc2cccc3c2[C@@H](c2cc(F)ccc2Cl)NC3=O)c2ccc(F)cc21` (single isomer, unassigned) [Compound I-2461]: the IC50 is at most 100 nM.
On to `O=C1N[C@@H](c2cc(F)ccc2Cl)c2c(NC(=O)N3C[C@@H](O)c4cc(F)ccc43)cc(-c3cnn(C(F)F)c3)cc21` (single isomer, unassigned) [Compound I-2477], for which the IC50 was at most 100 nM.

Tested on in another experiment: not listed separately
The experiment in a line: cells. The following applies: Homo sapiens, MCF-10A, read-out: MCF10A IC50.
Regarding `O=C1N[C@H](c2cc(F)ccc2Cl)c2c(NC(=O)N3C[C@H](O)c4c3ccc(F)c4F)cccc21` (single isomer, unassigned) [Compound I-2310], the IC50 was below 1000 nM.
Same read-out and setting: the value for `O=C(Nc1cc(NC2=NC[C@@H](C(F)(F)F)O2)cc2c1[C@H](c1cc(F)ccc1Cl)NC2=O)c1cc(F)cc(C(F)(F)F)c1` (single isomer, unassigned) [Compound I-2324] was below 1000 nM; that for `O=C1N[C@H](c2cc(F)ccc2Cl)c2c(NC(=O)N3C[C@H](C(F)F)c4ccccc43)cccc21` (single isomer, unassigned) [Compound I-2333] was 1000 to 5000 nM; that for `O=C1N[C@@H](c2cc(F)ccc2Cl)c2c(NC(=O)N3C[C@@H](C(F)F)c4ccccc43)cccc21` (single isomer, unassigned) [Compound I-2334] was 1000 to 5000 nM.
On the same count and under the same terms, the value for `N#CCCc1cc(NC(=O)N2C[C@H](O)c3cc(F)ccc32)c2c(c1)C(=O)N[C@H]2c1cc(F)ccc1Cl` (single isomer, unassigned) [Compound I-2346] was 1000 to 5000 nM; that for `O=C1N[C@@H](c2cc(F)ccc2Cl)c2c(NC(=O)N3C[C@H](O)c4cc(F)ccc43)cc(-n3ccccc3=O)cc21` (single isomer, unassigned) [Compound I-2350] was 5000 to 10000 nM; that for `O=C1N[C@@H](c2cc(F)ccc2Cl)c2c(NC(=O)N3CCc4cc(F)ccc43)cc(-c3cnn(C(F)F)c3)cc21` (single isomer, unassigned) [Compound I-2357] was below 1000 nM.
Turning to `O=C1N[C@@H](c2cc(F)ccc2Cl)c2c(NC(=O)N3C[C@H](O)c4cc(F)ccc43)cc(-n3cccn3)cc21` (single isomer, unassigned) [Compound I-2364], the IC50 lay in the range of 1000 to 5000 nM.
Same read-out and setting: the value for `O=C1N[C@H](c2cc(F)ccc2Cl)c2c(NC(=O)N3C[C@H](O)c4cc(F)ccc43)cc(-n3ccnn3)cc21` (single isomer, unassigned) [Compound I-2369] was 1000 to 5000 nM.
Consider `O=C1N[C@@H](c2cc(F)ccc2Cl)c2c(NC(=O)N3C[C@@](O)(C(F)(F)F)c4ccccc43)cccc21` (single isomer, unassigned) [Compound I-2386], for which the IC50 was below 1000 nM.
The same measure, in the same setting: as for `O=C(Nc1cc(NC2=N[C@H](C(F)(F)F)CO2)cc2c1[C@H](c1cc(F)ccc1Cl)NC2=O)c1cc(F)cc(C(F)(F)F)c1` (single isomer, unassigned) [Compound I-2387], the figure is 1000 to 5000 nM.
In the case of `O=C(Nc1cc(NC2=N[C@@H](C(F)(F)F)CO2)cc2c1[C@H](c1cc(F)ccc1Cl)NC2=O)c1cc(F)cc(C(F)(F)F)c1` (single isomer, unassigned) [Compound I-2388], the IC50 was 1000 to 5000 nM.
Still for that read-out and setting: the value for `O=C1N[C@H](c2cc(F)ccc2Cl)c2c(NC(=O)N3C[C@@H](O)c4cc(F)ccc43)cc(Cl)cc21` (single isomer, unassigned) [Compound I-2402] was below 1000 nM; that for `Nc1cc(NC(=O)N2C[C@@H](O)c3cc(F)ccc32)c2c(c1)C(=O)N[C@@H]2c1cc(F)ccc1Cl` (single isomer, unassigned) [Compound I-2410] was below 1000 nM.
On the same count and under the same terms, as for `Nc1cc(NC(=O)N2C[C@@H](O)c3cc(F)ccc32)c2c(c1)C(=O)N[C@H]2c1cc(F)ccc1Cl` (single isomer, unassigned) [Compound I-2411], the figure is 10000 to 36000 nM; as for `NCCc1cc(NC(=O)N2C[C@H](O)c3cc(F)ccc32)c2c(c1)C(=O)N[C@@H]2c1cc(F)ccc1Cl` (single isomer, unassigned) [Compound I-2443], 10000 to 36000 nM.
Still for that read-out and setting: the value for `O=C1N[C@H](c2cc(F)ccc2Cl)c2c(NC(=O)N3C[C@H](O)c4cc(F)ccc43)cc(-c3ccc(=O)n(C(F)F)c3)cc21` (single isomer, unassigned) [Compound I-2448] was 1000 to 5000 nM; that for `CC[C@@]1(O)CN(C(=O)Nc2cccc3c2[C@@H](c2cc(F)ccc2Cl)NC3=O)c2ccc(F)cc21` (single isomer, unassigned) [Compound I-2461] was below 1000 nM; that for `O=C1N[C@@H](c2cc(F)ccc2Cl)c2c(NC(=O)N3C[C@@H](O)c4cc(F)ccc43)cc(-c3cnn(C(F)F)c3)cc21` (single isomer, unassigned) [Compound I-2477] was below 1000 nM.
